The first test has as its system Male SD rats. Kind of test: Oral Glucose Tolerance Test. The settings on record: 10 mg/kg po 30-40 min prior to oGTT (glucose 2 g/kg po), blood glucose AUC t=0 to t=120 min. The class given is in vivo, rat. The procedure: Male SD rats (200-250 g) were housed 2 per cage in a temperature-controlled room with a 12-hour light/dark cycle. They were allowed ad libitum access to water and fed with normal rodent chow. The night before the oral glucose tolerance test (oGTT), the rats were transferred to clean cages and fasted overnight. On the morning of the oGTT, the rats were weighed and randomized into groups based on fasted blood glucose and body weight. Rats were dosed with vehicle (0.5% methocel) or compounds (10 mg/kg, po) thirty to forty min prior to the oGTT (glucose, 2 g/kg, po). Blood was collected from the tail vein at 0, 10, 30, 60 and 120 minutes after glucose challenge to measure blood glucose; plasma was used to determine insulin levels. The area under the curve for blood glucose excursion was calculated from t=0 to t=120 minutes. Percent lowering of glucose was calculated from the AUC data with respect to the vehicle-treated group.
Regarding `CC#C[C@@H](Cc1nnn[nH]1)c1ccc(OCc2ccc3sc(C(F)(F)F)c(-c4ccc(OCCOC)cc4C)c3c2)cc1` [Cpd 47, 5-((2S)-2-(4-((3-(4-(2-Methoxyethoxy)-2-methylphenyl)-2-(trifluoromethyl)benzo[b]thiophen-5-yl)methoxy)phenyl)pent-3-yn-1-yl)-1H-tetrazole], the “Percent Lowering of Glucose (AUC compound vs. AUC Vehicle)” value (from here on “Percent Lowering of Glucose”) worked out at 91%.

Consider `CC#C[C@@H](Cc1nnn[nH]1)c1ccc(OCc2ccc3sc(F)c(-c4ccc(OCCOC)cc4C)c3c2)cc1` [Cpd 44, (2S)-5-(2-(4-((2-Fluoro-3-(4-(2-methoxyethoxy)-2-methylphenyl)benzo[b]thiophen-5-yl)methoxy)phenyl)pent-3-yn-1-yl)-1H-tetrazole], for which the “Percent Lowering of Glucose” value amounted to 91%.

Consider `CC#C[C@@H](Cc1nnn[nH]1)c1ccc(OCc2ccc3scc(-c4ccc(OCCCS(C)(=O)=O)cc4C)c3c2)cc1` [Cpd 16, (2S)-5-(2-(4-((3-(2-Methyl-4-(3-(methylsulfonyl)propoxy)phenyl)benzo[b]thiophen-5-yl)methoxy)phenyl)pent-3-yn-1-yl)-1H-tetrazole], for which the “Percent Lowering of Glucose” value amounted to 105%.

For the compound `CC#C[C@@H](Cc1nnn[nH]1)c1ccc(OCc2ccc3scc(-c4ccc(OCC5(C)CS(=O)(=O)C5)cc4C)c3c2)cc1` [Cpd 12, (2S)-3-((4-(5-((4-(1-(1H-Tetrazol-5-yl)pent-3-yn-2-yl)phenoxy)methyl)benzo[b]thiophen-3-yl)-3-methylphenoxy)methyl)-3-methylthietane 1,1-dioxide], the “Percent Lowering of Glucose” value is reported as 101%.

Take `CC#C[C@@H](Cc1nnn[nH]1)c1ccc(OCc2ccc3scc(-c4ccccc4C)c3c2)cc1` [Cpd 1, (2S)-5-(2-(4-((3-(2-Methylphenyl)benzo[b]thiophen-5-yl)methoxy)phenyl)pent-3-yn-1-yl)-1H-tetrazole]: the “Percent Lowering of Glucose” value is 81%.

In another test the target is human GPR40 (Homo sapiens (Human), UniProt O14842). Kind of test: GPR40 Calcium Flux Assay.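 Also: calcium flux followed with the Fluo-8 fluorescent dye, intensity read each second over 8 min as compounds were added to the cells.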 The format is cell-based. The settings on record: transfected HEK293 cells stably expressing human GPR40; Ca2+ mobilization; mean data; read-out: hGPR40 Ca^2+ Assay EC50.
Sequence of human GPR40 (O14842 whole entry): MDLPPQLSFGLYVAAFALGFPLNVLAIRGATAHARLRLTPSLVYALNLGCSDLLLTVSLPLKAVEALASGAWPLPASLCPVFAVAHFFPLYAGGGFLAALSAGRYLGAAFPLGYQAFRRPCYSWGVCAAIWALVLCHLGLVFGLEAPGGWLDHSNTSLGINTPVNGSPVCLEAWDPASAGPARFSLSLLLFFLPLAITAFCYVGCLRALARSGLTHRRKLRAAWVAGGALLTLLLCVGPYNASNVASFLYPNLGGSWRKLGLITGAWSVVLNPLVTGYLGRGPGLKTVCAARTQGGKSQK
For orientation: EC50 means the concentration that produces a half-maximal response. `CC#C[C@@H](Cc1nnn[nH]1)c1ccc(OCc2ccc3scc(-c4cc(Cl)ncc4C)c3c2)cc1` [Cpd 5, (2S)-4-(5-((4-(1-(1H-Tetrazol-5-yl)pent-3-yn-2-yl)phenoxy)methyl)benzo[b]thiophen-3-yl)-2-chloro-5-methylpyridine]: the 50% effective concentration (EC50) is 65 nM.

Turning to `CC#C[C@@H](Cc1nnn[nH]1)c1ccc(OCc2ccc3scc(-c4ccc(OCC5(O)CCS(=O)(=O)CC5)cc4C)c3c2)cc1` [Cpd 6, (2S)-4-((4-(5-((4-(1-(1H-Tetrazol-5-yl)pent-3-yn-2-yl)phenoxy)methyl)benzo[b]thiophen-3-yl)-3-methylphenoxy)methyl)-4-hydroxytetrahydro-2H-thiopyran 1,1-dioxide], the EC50 came to 190 nM.

For `CC#C[C@@H](Cc1nnn[nH]1)c1ccc(OCc2cnc3scc(-c4ccccc4C)c3c2)cc1` [Cpd 49, (2S)-5-((4-(1-(1H-Tetrazol-5-yl)pent-3-yn-2-yl)phenoxy)methyl)-3-(2-methylphenyl)thieno[2,3-b]pyridine], the concentration for a half-maximal effect (EC50) worked out at 10 nM.

Turning to `CC#C[C@@H](Cc1nnn[nH]1)c1ccc(OCc2ccc3scc(-c4ncnn4C)c3c2)cc1` [Cpd 23, (2S)-5-(2-(4-((3-(1-Methyl-1H-1,2,4-triazol-5-yl)benzo[b]thiophen-5-yl)methoxy)phenyl)pent-3-yn-1-yl)-1H-tetrazole], the EC50 was found to be 1740 nM.

The values are drawn from patent US10106553B2, “Substituted benzothiophenyl derivatives as GPR40 agonists for the treatment of type II diabetes” (Janssen Pharmaceutica NV, priority 2016, dated 2018).
